Measured values reported in US11111238B2, “Coumarin derivatives, processes for their preparation and uses thereof for the treatment of cancer” (Lead Discovery Center GmbH, priority 2017, dated 2021).

Key:
[1] = system: SW403 (colon); assay: CellTiter GLO viability assay, SW403; format: cell-based; settings: Homo sapiens, SW-403, 144 h, read-out: IC50 (μM) incubation time 144 h
Protocol: (§1) The CellTiter-Glo Luminescent Cell Viability Assay (Promega) is a homogeneous method of determining the number of viable cells in culture. It is based on quantification of ATP, indicating the presence of metabolically active cells.
(§2) […] After incubation for 3 h in humidified chambers at 37° C./5% CO2 compounds/DMSO were added at different concentrations. […] Cells treated with the compound vehicle DMSO were used as positive controls and cells treated with 10 μM Staurosporine served as negative controls. […] Thereon, mixture and assay plates were equilibrated at room temperature for 20 min. Equal volumes of the reagent-medium-mixture was added to the volume of culture medium present in each well.
(§3) The plates were mixed at ˜200 rpm for 2 minutes on an orbital shaker. The microplates were then incubated at room temperature for 10 minutes for stabilization of the luminescent signal. Following incubation the luminescence is recorded on a Victor microplate reader (Perkin Elmer) using 200 ms integration time. The data were then analyzed with Excel using the XLFIT Plugin (dose response Fit 205) for IC50-determination. As quality control the Z′-factor was calculated from 16 positive and negative control values. Only assay results showing a Z′-factor≥0.5 were used for further analysis.

[2] = system: human DLD-1 colon carcinoma xenograft; assay: Therapeutic effect on human DLD-1 colon carcinoma xenograft in nude mice
Protocol: (§5) DLD-1 colon carcinoma cells (5×10^6 cells in 100 μL of PBS/Matrigel), isolated during exponential growth phase from in vitro cell culture, were transplanted s.c. into each female BALB/c nude mouse at day 0. Mice were kept under strictly controlled and standardized barrier conditions in IVC.
(§6) Sorafenib) (Nexavar®, which is an approved multi-kinase inhibitor/cytostatic from Bayer A G, was used as a positive control. Body weight and tumor volume (TV) were monitored two to three times per week.
(§7) Mice of groups 3, 4 and 5 were treated again at the end of the study period and blood samples were taken to generate plasma 1 h prior and 1 h post treatment. In addition, tumor and tissue samples were isolated, divided into two parts and snap frozen in liquid nitrogen. Mice of groups 1-5 were sacrificed at day 39. Gross autopsy was performed from all mice.

[3] = system: human DLD-1 colon carcinoma xenograft; settings: mouse, in vivo
Protocol: as §5, §6, §7

[4] = system: HRT-18 (colon); assay: CellTiter GLO viability assay, HRT-18; format: cell-based; settings: Homo sapiens, 144 h, read-out: IC50 (μM) incubation time 144 h
Protocol: as §1
(§4) Cells were seeded on day 1 at cell numbers that assure assay linearity and optimal signal intensity. After incubation for 3 h in humidified chambers at 37° C./5% CO2 compounds/DMSO were added at different concentrations. […] Cells treated with the compound vehicle DMSO were used as positive controls and cells treated with 10 μM Staurosporine served as negative controls. […] Thereon, mixture and assay plates were equilibrated at room temperature for 20 min. Equal volumes of the reagent-medium-mixture was added to the volume of culture medium present in each well.
as §3

[5] = system: CA-46 (lymphoma); assay: CellTiter GLO viability assay, CA-46; format: cell-based; settings: Homo sapiens, CA46, 144 h, read-out: IC50 (μM) incubation time 144 h
Protocol: as §1, §2, §3

[6] = system: HEC-59 (endometrial); assay: CellTiter GLO viability assay, HEC-59; format: cell-based; settings: 144 h, read-out: IC50 (μM) incubation time 144 h
Protocol: as §1, §4, §3

[7] = system: human A2780 ovary carcinoma xenograft; assay: Therapeutic effect on human A2780 ovary carcinoma xenograft in nude mice; format: in vivo, nude mice (female NMRI: nu/nu)
Protocol: In addition to the number of mice needed to build the groups necessary for the experiment, 8 additional mice were transplanted to have a sufficient number of satellite animals to improve stratification. Mice were stratified at day 7, when the mean tumor volume (TV) was 0.213±0.061 cm^3, (median TV=0.206 cm^3) into groups A-D with 8 mice each. 8 mice were excluded because of their tumor size.
Immediately before use, compound 14 was dissolved to obtain an injection solution to be sufficient for one week of treatment. The treatments were indicated as described in Table 6. […] Mean tumor […]±S.D. (RTV) was calculated. […] Mice of groups A, C and D were sacrificed at day 34 (QDx28 for times 28. Gross autopsy was performed from all mice.

[8] = system: NCI-H596 (lung); assay: CellTiter GLO viability assay, NCI-H596; format: cell-based; settings: Homo sapiens, 144 h, read-out: IC50 (μM) incubation time 144 h
Protocol: as §1, §4, §3

[9] = system: mitochondrial transcription (7S RNA) in HeLa cells; assay: Quantitative real time-PCR assay of inhibition of mitochondrial transcription (cellular qPCR assay IMT); format: cell-based; settings: Homo sapiens, 4 h compound incubation, qRT-PCR according to Example 5, activity class
Method in brief: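 HeLa cells were exposed 4 h to compound dilution series or DMSO. Mitochondrial 7S RNA, with POLRMT for nuclear transcription, was measured by TaqMan qRT-PCR, normalised to TBP. Biological triplicates were analysed by ΔΔCt and expressed as Rq % (2^-ΔΔCt).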

C[C@@H](Oc1ccc2c(-c3ccc(F)cc3Cl)cc(=O)oc2c1)C(=O)N1CCC[C@H](C(=O)O)C1 [Compound 14, (3S)-1-[(2R)-2-[4-(2-chloro-4-fluoro-phenyl)-2-oxo-chromen-7-yl]oxypropanoyl]piperidine-3-carboxylic acid]
IC50 [1]: ≤ 0.1 µM | Tolerability ([2]; DLD-1 xenograft, p.o. QD × 28 days): well tolerated | Therapeutic effect: tumor growth inhibition ([2]; all doses): dose-dependent tumor growth inhibition | Therapeutic effect: tumor growth inhibition ([2]; lowest dose (50 mg/kg)): minor effect | Autopsy at the end [3]: no abnormal observations | body weight loss [3]: moderate body weight loss | signs of toxicity [3]: no signs of toxicity were observed | IC50 [4]: ≤ 0.1 µM | IC50 [5]: ≤ 0.1 µM | IC50 [6]: > 10 µM | Mean tumor weight ([7]; 30 mg/kg p.o. QD × 21): 0.629 g | RTV (relative tumor volume at day 27 compared to D 7) ([7]; 30 mg/kg p.o. QD × 21): 6.8 | Tumor weight, % of control ([7]; 30 mg/kg p.o. QD × 21): (75.5) % | Tumor growth inhibition (D 27): Mean TV ([7]; 30 mg/kg p.o. QD × 21, day 27): 1.300 cm^3 | optimum T/C value ([7]; 50 mg/kg): 88.3% | optimum T/C value ([7]; 100 mg/kg): 59.2% | Mean tumor weight ([7]; 100 mg/kg p.o. QD × 28): 0.491 g | RTV (relative tumor volume at day 27 compared to D 7) ([7]; 100 mg/kg p.o. QD × 28): 5.1 | Tumor weight, % of control ([7]; 100 mg/kg p.o. QD × 28): (60,0) % | Tumor growth inhibition (D 27): Mean TV ([7]; 100 mg/kg p.o. QD × 28, day 27): 0.715 cm^3 | optimum T/C value ([7]; 200 mg/kg): 24.9% | Mean tumor weight ([7]; 200 mg/kg p.o. QD × 28): 0.141 g | RTV (relative tumor volume at day 27 compared to D 7) ([7]; 200 mg/kg p.o. QD × 28): 1.1 | Tumor weight, % of control ([7]; 200 mg/kg p.o. QD × 28): (16.99) % | Tumor growth inhibition (D 27): Mean TV ([7]; 200 mg/kg p.o. QD × 28, day 27): 0.232 cm^3 | Tolerability ([7]; A2780 xenograft, p.o. QD): well tolerated | Therapeutic effect: tumor growth inhibition ([7]; all doses): dose-dependent tumor growth inhibition | Therapeutic effect: tumor growth inhibition ([7]; higher doses (100 and 200 mg/kg)): significantly more active regarding tumor growth inhibition | Therapeutic effect: tumor growth inhibition ([7]; lowest dose (50 mg/kg)): no significant effect | Autopsy at the end ([7]; mouse, in vivo): no abnormal observations | signs of toxicity ([7]; mouse, in vivo, po): no signs of toxicity were observed | IC50 [8]: 1 to 10 µM | IC50 [9]: < 10 nM
